Laboratory results reported in patent US5945451A, “Fluorobutenyl(thio)ethers used as pesticides” (Bayer Aktiengesellschaft, priority 1994, dated 1999).
Values belong to the compound of their own block, whether it stands above or below them.

Legend:
[1] = log p, octanol/water partition coefficient determined by reversed-phase HPLC; type: physicochemical; settings: for chromatographic logD: pH 2; for chromatographic logP: pH not stated
Excerpt: * log p = Logarithm of the partition coefficient p of the substance
between the solvents octanol and water, determined experimentally by mean

[2] = test system: tobacco budworm (Heliothis virescens); assay: whole plant or invertebrate; type: in vivo; settings: 168 h, read-out: destruction
Description: (§1) Solvent: 7 parts by weight of dimethylformamide
(§2) Emulsifier: 1 part by weight of alkylaryl polyglycol ether
(§3) To produce a suitable preparation of active compound, 1 part by weight of active compound is mixed with the stated amount of solvent and the stated amount of emulsifier, and the concentrate is diluted with water to the desired concentration.
Soya bean shoots (Glycine max) are treated by being dipped into the preparation of active compound of the desired concentration and are infested with tobacco budworm (Heliothis virescens) while the leaves are still moist.
(§4) After the desired period of time, the destruction in % is determined. 100% means that all the caterpillars have been killed; 0% means that none of the caterpillars have been killed.

[3] = test system: Lucilia cuprina larvae; assay: Blowfly larvae test; type: in vivo; settings: after 24 hours, horse meat, read-out: destruction
Description: Test animals: Lucilia cuprina larvae
Solvent: 35 parts by weight of ethylene glycol monomethyl ether
Emulsifier: 35 parts by weight of nonylphenol polyglycol ether
For the purpose of producing a suitable formulation, 3 parts by weight of the active compound are mixed with 7 parts of the abovementioned mixture of solvent and emulsifier, and the emulsion concentrate thus obtained is diluted with water to the particular concentration desired.
About 20 Lucilia cuprina larvae are introduced into a test tube which contains approx. 1 cm^3 of horse meat and 0.5 ml of the preparation of active compound to be tested. After 24 hours, the efficacy of the preparation of active compound is determined. 100% means that all blowfly larvae have been killed; 0% means that none of the blowfly larvae have been killed.

[4] = test system: caterpillars of the diamond-back moth (Plutella maculipennis); assay: Plutella test; type: in vivo; settings: 168 h, after 7 days, dipped cabbage leaves, read-out: destruction
Description: as §1, §2, §3
Cabbage leaves (Brassica oleracea) are treated by being dipped into the preparation of active compound of the desired concentration and are infested with caterpillars of the diamond-back moth (Plutella maculipennis) while the leaves are still moist.
as §4

[5] = test system: mustard beetle larvae (Phaedon cochleariae); assay: Phaedon larvae test; type: in vivo; settings: 168 h, after 7 days, dipped cabbage leaves, read-out: destruction
Description: as §1, §2, §3
After the desired period of time, the destruction in % is determined. 100% means that all the beetle larvae have been killed; 0% means that none of the beetle larvae have been killed.

[6] = test system: larvae of the green rice leafhopper (Nephotettix cincticeps); assay: Nephotettix test; type: in vivo; settings: 144 h, read-out: destruction
Description: as §1, §2, §3
Rice seedlings (Oryzae sativa) are treated by being dipped into the preparation of active compound of the desired concentration and are infested with larvae of the green rice leafhopper (Nephotettix cincticeps) while the seedlings are still moist.
After the desired period of time, the destruction in % is determined. 100% means that all the leafhoppers have been killed; 0% means that none of the leafhoppers have been killed.

[7] = test system: Meloidogyne incognita; assay: Critical concentration test/nematodes; type: in vivo; settings: 20 ppm in soil; lettuce root galls after three weeks
Description: Critical concentration test/nematodes
Test nematode: Meloidogyne incognita
Solvent: 3 parts by weight of acetone
as §2
To produce a suitable preparation of active compound, 1 part by weight of active compound is mixed with the stated amount of solvent, the stated amount of emulsifier is added and the concentrate is diluted with water to the desired concentration.
The preparation of active compound is intimately mixed with soil which is severely infested with the test nematodes. The concentration of the active compound in the preparation is of practically no importance, only the amount of active compound per unit volume of soil, which is given in ppm (=mg/l), being decisive. The treated soil is transferred into pots, lettuce is sown in, and the pots are kept at a greenhouse temperature of 25° C.
After three weeks, the lettuce roots are checked for infestation with nematodes (root galls) and the degree of efficacy of the active compound in % is determined. The degree of efficacy is 100% when infestation is avoided completely and 0% when the infestation level is just as high as in the control plants in untreated, but equally infested, soil.

chromatographic logD [1]: 4.59
SMILES: O=C(Nc1ccc(Cl)c(Cl)c1)C(SCCC(F)=C(F)F)c1ccccc1 (stereo not drawn) [Example I-46]

chromatographic logP [1]: 2.77
SMILES: CC(NC(=O)CSCCC(F)=C(F)F)c1ccccc1 (stereo not drawn) [Example I-18]

SMILES: O=C(CSCCC(F)=C(F)F)Nc1ccc(F)cc1 [Example I-10]
mortality at 0.1 % [2]: 85%

chromatographic logD [1]: 1.22
SMILES: NC(=O)CSCCC(F)=C(F)F [Example I-22]

SMILES: CN(C)C(=O)CSCCC(F)=C(F)F [Example I-9]
mortality at 1000 ppm [3]: 100%

SMILES: CC(C)N(C(=O)CSCCC(F)=C(F)F)c1ccc(Cl)c(Cl)c1 [Example I-13]
mortality at 0.1 % [4]: 100%
mortality at 0.1 % [5]: 100%

SMILES: CC(C)N(C(=O)CSCCC(F)=C(F)F)c1cccc(F)c1 [Example I-14]
mortality at 0.1 % [4]: 100%
mortality at 0.1 % [6]: 100%

SMILES: O=C(CSCCC(F)=C(F)F)Nc1ccccn1 [Example I-11]
degree of efficacy [7]: 100%

SMILES: O=C(O)CNC(=O)CSCCC(F)=C(F)F [Example I-15]
degree of efficacy [7]: 100%

chromatographic logP [1]: 2.43
SMILES: COC(=O)CSCCC(F)=C(F)F [Example I-20]

SMILES: O=C(CSCCC(F)=C(F)F)NC(Cc1ccccc1)C(=O)O (stereo not drawn) [Example I-17]
degree of efficacy [7]: 100%

chromatographic logP [1]: 3.74
SMILES: CC(C)COC(=O)CSCCC(F)=C(F)F [Example I-21]

chromatographic logP [1]: 2.94
SMILES: O=C(CSCCC(F)=C(F)F)NCc1ccc(Cl)cc1 [Example I-19]

chromatographic logD [1]: 2.56
SMILES: O=C(CSCCC(F)=C(F)F)NCc1ccccc1 [Example I-23]

SMILES: O=C(CSCCC(F)=C(F)F)OCc1ccccc1 [Example I-2]
degree of efficacy [7]: 100%

SMILES: CC(NC(=O)CSCCC(F)=C(F)F)C(=O)O (stereo not drawn) [Example I-16]
degree of efficacy [7]: 100%
